{"source": "patent EP0201988A2", "about": "“Dihydropyridazinone derivatives” (SMITH KLINE & FRENCH LABORATORIES LIMITED, priority 1985, dated 1986)", "key": {"PDE (Peak III)": {"target": "PDE (Peak III)", "assay": "Inhibition of phosphodiesterases, PDE (Peak III) enzyme assay", "type": "biochemical", "details": "PDE (Peak III) from cat heart, 1 µM cyclic AMP", "procedure": "Sepharose is a registered trademark of Pharmacia Fine Chemicals Inc. The high-speed supernatant from a cat heart homogenate (2 g tissue in 20 ml 20 mM PiPES - (Piperazine-N-N'-bis[2-ethanesulfonic acid]), 50 mM Na acetate, pH 6.5) was applied to a 15 ^x 1.5 cm column of DEAE-Sepharose equilibrated with the homogenisation buffer. The PDE activities were eluted with a gradient of 0.05-1 M Na acetate in 20 mM PIPES.\nThe enzyme was assayed by incubation at 37° for 4-30 min in 50 mM Tris, 5 mM MgCl2, pH 7.5 with [3-H] cyclic nucleotide (4 ^x 10^5 disintegrations min-') and [14-C] nucleotide 5' monophosphate (3 ^x 10^3 disintegrations min^-1). The assay was stopped by boiling, and the [3-H] […] The reaction mixture was diluted with 0.5 ml 100 mM HEPES (N-2-Hydroxyethylpiperazine-N'-2-ethanesulfonic acid), 100 mM NaCl, pH 8.5, and applied to the column. The column was extensively washed with the same buffer, and the 5' nucleotide eluted with 6 ml 025 M acetic acid."}, "anaesthetised cats": {"tested_on": "anaesthetised cats", "assay": "Cardiac stimulant activity in vivo (anaesthetised cats)", "details": "anaesthetised cats pretreated with pempidine and propranolol, administered intravenously; for ED50: Felis catus, iv, read-out: ED50 (dose to increase left ventricular dp/dt max by 50%)"}, "ventricular strips": {"tested_on": "ventricular strips", "assay": "Cardiac stimulant activity in vitro (electrically stimulated ventricular strips)", "type": "cell-based, Guinea pigs", "details": "Cavia porcellus; guinea pig right ventricle strips, stimulated at 1.0 Hz, Krebs Henseleit solution at 37°C, concentration in the bathing fluid; read-out: EC50 (50% increase in the force of contraction of the ventricular strips)", "procedure": "The compounds of formula (I) and their pharmaceutically acceptable salts are tested for cardiac stimulant activity following a procedure based on that of S.C. Verma and J. H. McNeill (J.Pharm & Exp. Therapeutics, 200, 352-362 (1977)). Guinea pigs (500-700 g) of either sex are sacrificed and the hearts are quickly removed and transferred to a dissecting dish containing oxygenated bathing fluid. While in the bathing medium, the right ventricle is cut into two strips. The strips are each suspended in a 50 ml bath containing Krebs Henseleit solution at 37°C, and the bath is bubbled with 95% oxygen and 5% carbon dioxide. The ventricular strips are electrically stimulated at a frequency of 1.0 Hz, at double the threshold voltage. A resting tension of 1.0 g is applied to the strips and the tension is kept constant by readjustment during an equilibration period of 60 minutes. The bathing fluid is frequently changed during this period. When a steady base line is obtained, a compound under test is added to the bathing fluid and a cumulative concentration response curve is plotted."}}, "data": [{"smiles": "CC1CC(=O)NN=C1c1ccc(NC2=NC(=O)CN2)cc1", "note": "(centres unmarked) [Example 1, 6-[4-(4-Oxo-2-imidazolin-2-ylamino)phenyl]-5-methyl-4,5-dihydro-3(2H)-pyridazinone]", "values": [{"measurement": "IC50", "setting": "PDE (Peak III)", "result": 1.84, "unit": "µM"}, {"measurement": "ED50", "setting": "anaesthetised cats", "result": 0.4, "unit": "µmol/kg"}, {"measurement": "duration of activity", "setting": "anaesthetised cats", "result": "long duration of activity"}, {"measurement": "EC50", "setting": "ventricular strips", "result": 14, "unit": "µM"}]}, {"smiles": "Nc1cc(-c2ccncc2)c[nH]c1=O", "note": "[Amrinone]", "values": [{"measurement": "IC50", "setting": "PDE (Peak III)", "result": 51.8, "unit": "µM"}, {"measurement": "ED50", "setting": "anaesthetised cats", "result": 5.6, "unit": "µmol/kg"}, {"measurement": "duration of activity", "setting": "anaesthetised cats", "result": "short duration of activity"}]}, {"smiles": "Cc1[nH]c(=O)c(C#N)cc1-c1ccncc1", "note": "(single isomer, unassigned) [Milrinone]", "values": [{"measurement": "IC50", "setting": "PDE (Peak III)", "result": 2.2, "unit": "µM"}]}]}
